This is an account of results in patent publication US9084792B2 (Zhejiang Charioteer Pharmaceutical Co., Ltd., priority 2009, dated 2015).

A short description of series [1]: thermal decomposition point. Type of series: physicochemical. As to the method:
(1) It has the property required for large-scale preparation of drugs: for example, it has thermal decomposition point of over 250° C., and good fluidity and bulk density, which are in favor of drug preparation and industrial production on a large scale.

Series [2] is described as follows: stability test of crystalline form on storage. Type of series: physicochemical. The conditions noted are these: room temperature, relative humidity of less than 50%. The source says: (2) It has good stability of crystalline form. […] It can be stored in the dark, cool and dry place for a long time.

Regarding `Nc1nc2c(ncn2COCCO)c(=O)[nH]1.Nc1nc2c(ncn2COCCO)c(=O)[nH]1.Nc1nc2c(ncn2COCCO)c(=O)[nH]1.O.O` [acyclovir 2/3 hydrate], the thermal decomposition point result in series [1] was “over 250 °C”. Further, the storage time entry in series [2] is “more than one year”. Moreover, in series [2] (more than one year), the “content during the storage time” value was “the content does not reduce” and the “crystalline form during the storage time” value is recorded as “the crystalline form remains the same”.
